Like-named read-outs stand apart in the source and are kept apart here.
How the values were obtained:
[1] = tested on: animal model of hypervolemic tamponade
[2] = cited from earlier work
[3] = tested on: congestion heart failure (HF) model; conditions: for diuresis / natriuresis: furosemide diuresis, No-HF; for filtration fraction: furosemide infusion

SMILES: NS(=O)(=O)c1cc(C(=O)O)c(NCc2ccco2)cc1Cl [furosemide]
- decrease in urine output ([1]; tamponade (CVP approx. 20 mm Hg), continued presence of furosemide, compared to mild congestion state of saline loading): −35%
- increase in urine output ([1]; tamponade, negative pressure (−30 mm Hg) in combination with furosemide, beyond the use of diuretics alone): +67%
- increase in renal interstitial pressure ([2]; furosemide administration, as reported): ~7 mmHg
- effect on GFR ([2]; known effect of furosemide): can reduce GFR
- diuresis ([3]; control kidney (no rNPT)): 11.8 ± 3.7 mL/min
- natriuresis ([3]; control kidney (no rNPT)): 1.5 ± 0.5 mmol/min
- diuresis ([3]; rNPT kidney (−30 mmHg)): 19.7 ± 4.5 mL/min
- natriuresis ([3]; rNPT kidney (−30 mmHg)): 2.4 ± 0.6 mmol/min
- filtration fraction ([3]; during rNPT (similar effect between HF and no HF periods)): 55.6±24.8%
- filtration fraction ([3]; without rNPT): 49.0±20.8%
